From PubChem BioAssay AID2060498 (Molecular Pharmacology Branch, DTP, NCI, 2025)
Several values for one entry are separate records, joined by “and”; a condition that tells them apart may be missing. Equal entries are not always repeated. One block for each compound: values may come before it.

Tested on: 171881-019-R-J1-PDC tumor spheroids, viability
Experiment: Anticancer human tumor 171881-019-R-J1-PDC patient-derived invasive breast carcinoma cell line growth inhibition [GQUAD]
Conditions: spheroids with HUVEC and MSC; for viability, T/C: stronger effect = lower value
Description: DNA G-quadruplex Stabilizer Agents in Combinations in Complex Spheroids
A high-throughput screen of multi-cell type tumor spheroids was designed to identify active combinations of DNA G-quadruplex stabilizer agents and targeted small molecules. Complex spheroids include a stromal component modeled by human endothelial cells (HUVEC) and fibroblasts modeled by human mesenchymal stem cells (MSCs). The concentration ranges selected for each drug and investigational agent were based upon clinically achievable concentrations if the clinical Cmax of the agent was known.
Compounds. The drugs and investigational agents: pidnarulex (CX-5461; NSC782164), APTO-253 (NSC789042), BRACO-19 (NSC847499), peposertib (NSC802822), ceralasertib (NSC780249), elimusertib (NSC800525), camonsertib (NSC841442), AZD-1390 (NSC803789), olaparib (NSC753686), talazoparib (NSC767125), ART-558 (NSC835418), sotorasib (NSC818433), MRTX-1133 (NSC836407), SN-38 (NSC673596), topotecan (NSC609699), etoposide (NSC141540), doxorubicin (NSC123127), gemcitabine (NSC613327), 5-fluorouracil (NSC19893), paclitaxel (NSC125973), vemurafenib (NSC761431), panobinostat (NSC761190), R-306465 (JNJ-16241199; NSC773264), adavosertib (NSC754352), TP-3654 (NSC805149), carboplatin (NSC241240), KSQ-4279 (NSC840948), and staurosporine (NSC755774) were obtained from the National Cancer Institute (NCI) Developmental Therapeutics Program Chemical Repository (34). The FDA-approved anticancer drug set is available from the NCI Developmental Therapeutics Program. […] The stock solutions were prepared in dimethyl sulfoxide (DMSO, Sigma-Aldrich, St. Louis, MO, cat. D2650) at 800-fold the tested concentration and stored at -70 degrees C prior to their use. All drugs and investigational agents were tested over a range starting from a high concentration at or near the clinical Cmax and decreasing in half-log increments. If the clinical Cmax for an agent had not been determined, the highest concentration tested was 10 microM.
2.3 Cell Culture. All cells were maintained in an incubator at 37 degrees C and 5% CO2 with 95% humidity. The PDC lines were cultured according to standard operating procedures established by the NCI PDMR. All PDCs were thawed and cultured in Matrigel-coated flasks prepared with a working solution of 1X Ham's F-12 nutrient mix, without supplementation (Invitrogen, cat. 11765054), 100 U/mL penicillin-streptomycin (Invitrogen, cat. 15140122), and 2.5% Matrigel (Corning Inc., cat. 354248) for the first three passages. The 857933-349-R-J2-PDC line was cultured in 6C/Colon 1B media, which includes advanced DMEM/F-12 (Thermo Fisher Scientific, cat. 12634028), 10 mM HEPES (Thermo Fisher Scientific, cat. 15630080), 1X GlutaMAX supplement (Thermo Fisher Scientific, cat. 35050061), 0.1 mg/mL primocin (InvivoGen, cat. ant-pm-2), 10% defined fetal bovine serum, heat inactivated (HyClone Laboratories Inc., cat. SH30070.03HI), 50% L-WRN conditioned media (ATCC, cat. CRL-3276), 1.25 mM N-Acetyl-L-cysteine (Sigma-Aldrich, cat. A9165), 10 mM nicotinamide (Sigma-Aldrich, cat. N0636), 1X B-27 supplement (Thermo Fisher Scientific, cat. 17504044), 1X N-2 supplement (Thermo Fisher Scientific, cat. 17502048), 10 microM Y-27632 dihydrochloride (Tocris Bioscience, cat. 1254), and 50 ng/mL human EGF recombinant protein (Thermo Fisher Scientific, cat. PHG0311). The 485176-168-R4-J1-PDC line was cultured in Panc media, which includes all 6C/Colon 1B media components plus 100 ng/mL human FGF-10 (Thermo Fisher Scientific, cat. 100-26), 500 nM SB-431542 (Selleckchem, cat. S1067), and gastrin (Tocris, cat. 3006).
[…]
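Note: spheroids exposed to compounds for 7 days.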
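Throughout, for viability, T/C: 100% = DMSO vehicle control viability.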

- IC50 (curve of compound): 255 nM and 224 nM and 201 nM
SMILES: O=C(NO)c1cnc(N2CCN(S(=O)(=O)c3ccc4ccccc4c3)CC2)nc1
- viability, T/C (compound 0.0316 µM): 77.1% and 89.5% and 81.1%
- viability, T/C (compound 0.1 µM): 74% and 76.3% and 64.2%
- viability, T/C (compound 0.316 µM): 44.3% and 39.6% and 41.4%
- viability, T/C (compound 1 µM): 0.86% and 0.61% and 2.4%
- viability, T/C (compound 3.16 µM): 0.14% and 0.11% and 0.19%
- viability, T/C (compound 10 µM): 0.33% and 0.21% and 0.18%

- IC50 (curve of compound): > 10000 nM
SMILES: O=c1[nH]cc(F)c(=O)[nH]1
- viability, T/C (compound 0.0316 µM): 82.5% and 74.1% and 82.2%
- viability, T/C (compound 0.1 µM): 61.5% and 60.6% and 75.6%
- viability, T/C (compound 0.316 µM): 61.1% and 61.8% and 73.7%
- viability, T/C (compound 1 µM): 57.7% and 55.4% and 66.4%
- viability, T/C (compound 3.16 µM): 51.6% and 51.2% and 63.5%
- viability, T/C (compound 10 µM): 52.5% and 54.1% and 66.9%

SMILES: COc1cccc2c1C(=O)c1c(O)c3c(c(O)c1C2=O)CC(O)(C(=O)CO)CC3OC1CC(N)C(O)C(C)O1 (stereo unspecified) + CN(C)c1ccc(Nc2c3ccc(NC(=O)CCN4CCCC4)cc3nc3cc(NC(=O)CCN4CCCC4)ccc23)cc1
- IC50 (curve of first compound, second compound 0.0316 µM): 261 nM
- IC50 (curve of first compound, second compound 0.1 µM): 263 nM
- IC50 (curve of first compound, second compound 0.316 µM): 229 nM
- IC50 (curve of first compound, second compound 1 µM): < 31.6 nM
- IC50 (curve of first compound, second compound 3.16 µM): < 31.6 nM
- IC50 (curve of first compound, second compound 10 µM): < 31.6 nM
- viability, T/C (second compound 0.0316 µM, first compound 0.0316 µM): 93.9%
- viability, T/C (second compound 0.0316 µM, first compound 0.1 µM): 66.6%
- viability, T/C (second compound 0.0316 µM, first compound 0.316 µM): 51.4%
- viability, T/C (second compound 0.0316 µM, first compound 1 µM): 19.9%
- viability, T/C (second compound 0.0316 µM, first compound 3.16 µM): 0.2%
- viability, T/C (second compound 0.0316 µM, first compound 10 µM): 0.24%
- viability, T/C (second compound 0.1 µM, first compound 0.0316 µM): 109%
- viability, T/C (second compound 0.1 µM, first compound 0.1 µM): 68.2%
- viability, T/C (second compound 0.1 µM, first compound 0.316 µM): 54.4%
- viability, T/C (second compound 0.1 µM, first compound 1 µM): 20.2%
- viability, T/C (second compound 0.1 µM, first compound 3.16 µM): 0.28%
- viability, T/C (second compound 0.1 µM, first compound 10 µM): 0.36%
- viability, T/C (second compound 0.316 µM, first compound 0.0316 µM): 70.2%
- viability, T/C (second compound 0.316 µM, first compound 0.1 µM): 55.2%
- viability, T/C (second compound 0.316 µM, first compound 0.316 µM): 47.6%
- viability, T/C (second compound 0.316 µM, first compound 1 µM): 10.7%
- viability, T/C (second compound 0.316 µM, first compound 3.16 µM): 0.27%
- viability, T/C (second compound 0.316 µM, first compound 10 µM): 0.33%
- viability, T/C (second compound 1 µM, first compound 0.0316 µM): 11.5%
- viability, T/C (second compound 1 µM, first compound 0.1 µM): 11.2%
- viability, T/C (second compound 1 µM, first compound 0.316 µM): 7.77%
- viability, T/C (second compound 1 µM, first compound 1 µM): 2.02%
- viability, T/C (second compound 1 µM, first compound 3.16 µM): 0.44%
- viability, T/C (second compound 1 µM, first compound 10 µM): 0.64%
- viability, T/C (second compound 3.16 µM, first compound 0.0316 µM): 1.52%
- viability, T/C (second compound 3.16 µM, first compound 0.1 µM): 2.29%
- viability, T/C (second compound 3.16 µM, first compound 0.316 µM): 1.63%
- viability, T/C (second compound 3.16 µM, first compound 1 µM): 0.4%
- viability, T/C (second compound 3.16 µM, first compound 3.16 µM): 0.14%
- viability, T/C (second compound 3.16 µM, first compound 10 µM): 0.51%
- viability, T/C (second compound 10 µM, first compound 0.0316 µM): 0.38%
- viability, T/C (second compound 10 µM, first compound 0.1 µM): 0.25%
- viability, T/C (second compound 10 µM, first compound 0.316 µM): 0.32%
- viability, T/C (second compound 10 µM, first compound 1 µM): 0.18%
- viability, T/C (second compound 10 µM, first compound 3.16 µM): 0.29%
- viability, T/C (second compound 10 µM, first compound 10 µM): 0.26%
